# Source: patent US8889591B2, “Herbicidal compositions comprising 4-amino-3-chloro-5-fluoro-6-(4-chloro-2-fluoro-3-methoxyphenyl)pyridine-2-carboxylic acid or a derivative thereof and bromobutide, daimuron, oxaziclomefone or pyributicarb” (Dow Agrosciences LLC, priority 2012, dated 2014)
# Columns and labels:
# FIMMI = experiment: In-water applied greenhouse weed control, transplanted paddy rice system; assay type: in vivo, Fimbristylis miliacea (L.) Vahl; conditions: in-water application
# Experimental: Weed seeds or nutlets of the desired test plant species were planted in puddled soil (mud) prepared by mixing a shredded, non-sterilized mineral soil (50.5 percent silt, 25.5 percent clay, and 24 percent sand, with a pH of about 7.6 and an organic matter content of about 2.9 percent) and water at a 1:1 volumetric ratio. The prepared mud was dispensed in 365 mL aliquots into 16-ounce (oz.) non-perforated plastic pots with a surface area of 86.59 square centimeters (cm^2) leaving a headspace of 3 centimeters (cm) in each pot. Mud was allowed to dry overnight prior to planting or transplanting. Rice seeds were planted in Sun Gro MetroMix® 306 planting mixture, which typically has a pH of 6.0 to 6.8 and an organic matter content of about 30 percent, in plastic plug trays. Seedlings at the second or third leaf stage of growth were transplanted into 840 mL of mud contained in 32-oz. non-perforated plastic pots with a surface area of 86.59 cm^2 4 days prior to herbicide application. The paddy was created by filling the headspace of the pots with 2.5 to 3 cm of water. When required to ensure good germination and healthy plants, a fungicide treatment and/or other chemical or physical treatment was applied. The plants were grown for 4-22 days in a greenhouse with an approximate 14 h photoperiod which was maintained at about 29° C. during the day and 26° C. during the night. Nutrients were added as Osmocote® (19:6:12, N:P:K+ minor nutrients) at 2 g per 16-oz. pot and 4 g per 32-oz. pot. Water was added on a regular basis to maintain the paddy flood, and supplemental lighting was provided with overhead metal halide 1000-Watt lamps as necessary. The plants were employed for testing when they reached the first through fourth true leaf stage.
# Treatments consisted of the acid or esters of 4-amino-3-chloro-5-fluoro-6-(4-chloro-2-fluoro-3-methoxy-phenyl)pyridine-2-carboxylic acid (compound A) each formulated as an SC and various herbicidal components alone and in combination. Forms of compound A were applied on an acid equivalent basis.
# Other herbicidal components were applied on an active ingredient basis and included daimuron formulated as an EC, bromobutide (technical grade material), and oxaziclomefone (technical grade material).
# (§1) Treatment requirements for each compound or herbicidal component were calculated based upon the rates being tested, the concentration of active ingredient or acid equivalent in the formulation, an application volume of 2 mL per component per pot, and an application area of 86.59 cm^2 per pot.
# For formulated compounds, a measured amount was placed in an individual 100 or 200 mL glass vial and was dissolved in a volume of 1.25% (v/v) Agri-Dex® crop oil concentrate to obtain application solutions.
# For technical grade compounds, a weighed amount was placed in an individual 100 to 200 mL glass vial and was dissolved in a volume of acetone to obtain concentrated stock solutions. […] The concentrated stock solutions obtained were diluted with an equivalent volume of an aqueous mixture containing 2.5% (v/v) crop oil concentrate so that the final application solutions contained 1.25% (v/v) crop oil concentrate.
# Applications were made by injecting, with a pipetter, appropriate amounts of the application solutions, individually and sequentially, into the aqueous layer of the paddy. Control plants were treated in the same manner with the solvent blank. Applications were made so that all treated plant material received the same concentrations of acetone and crop oil concentrate.
# (§2) The treated plants and control plants were placed in a greenhouse as described above and water was added as needed to maintain a paddy flood. After approximately 3 weeks the condition of the test plants as compared with that of the untreated plants was determined visually and scored on a scale of 0 to 100 percent where 0 corresponds to no injury or growth inhibition and 100 corresponds to complete kill. […]
# ECHCG = experiment: as above; assay type: in vivo, Echinochloa crusgalli (L.) Beauv.; conditions: in-water application
# Experimental: Weed seeds or nutlets of the desired test plant species were planted in puddled soil (mud) prepared by mixing a shredded, non-sterilized mineral soil (50.5 percent silt, 25.5 percent clay, and 24 percent sand, with a pH of about 7.6 and an organic matter content of about 2.9 percent) and water at a 1:1 volumetric ratio. The prepared mud was dispensed in 365 mL aliquots into 16-ounce (oz.) non-perforated plastic pots with a surface area of 86.59 square centimeters (cm^2) leaving a headspace of 3 centimeters (cm) in each pot. Mud was allowed to dry overnight prior to planting or transplanting. Rice seeds were planted in Sun Gro MetroMix® 306 planting mixture, which typically has a pH of 6.0 to 6.8 and an organic matter content of about 30 percent, in plastic plug trays. Seedlings at the second or third leaf stage of growth were transplanted into 840 mL of mud contained in 32-oz. non-perforated plastic pots with a surface area of 86.59 cm^2 4 days prior to herbicide application. The paddy was created by filling the headspace of the pots with 2.5 to 3 cm of water. […]
# as §1
# For formulated compounds, a measured amount was placed in an individual 100 or 200 mL glass vial and was dissolved in a volume of 1.25% (v/v) Agri-Dex® crop oil concentrate to obtain application solutions. […]
# as §2
# [1] = Compound A Benzyl Ester 8 gae/ha alone
# [2] = Compound A Benzyl Ester 16 gae/ha alone
smiles,measurement,setting,value
COc1c(Cl)ccc(-c2nc(C(=O)OCc3ccccc3)c(Cl)c(N)c2F)c1F [Compound A Benzyl Ester],Visual Weed Control (%) - 19 DAA FIMMI Obs,FIMMI; [1],0%
same,Visual Weed Control (%) - 21 DAA FIMMI Obs,FIMMI; [1],15%
same,Visual Weed Control (%) - 19 DAA FIMMI Obs,FIMMI; [2],0%
same,Visual Weed Control (%) - 21 DAA FIMMI Obs,FIMMI; [2],65%
same,Visual Weed Control (%) - 21 DAA FIMMI Obs,FIMMI; Compound A Benzyl Ester 32 gae/ha alone,75%
same,Visual Weed Control (%) - 21 DAA ECHCG Obs,ECHCG; Compound A Benzyl Ester 4.38 gae/ha alone,40%
same,Visual Weed Control (%) - 21 DAA ECHCG Obs,ECHCG; Compound A Benzyl Ester 8.75 gae/ha alone,50%
